Data taken from US20060014801A1, “Prevention and treatment of cognitive impairment using (R)-(-)-5-methyl-1-nicotynoyl-2-pyrazoline (MNP) and analogs” (The Johns Hopkins University, priority 2002, published 2006).

Key:
GLT1B = assay: Western blot of GLT1B protein expression in hippocampus of young rats after 7 days s.c. MNP; type: in vivo, Long-Evans rats; details: 50 mg/kg/day s.c. minipump
Method: Administration of MNP: Twelve young Long-Evans rats, weighing approximately 400-500 grams, received treatment with either vehicle (0.9% saline; n=6) or MNP (50 mg/kg/day; n=6). The rats were administered MNP and vehicle continuously for one week via an osmotic minipump (Alzet, model 2ML1) implanted subcutaneously on the back, slightly posterior to the scapulae. After 7 days of treatment, the rats were sacrificed, their brains were removed, the hippocampi dissected out, frozen on dry ice and sent for Western blot analysis. The implanted minipump was also removed to verify proper drug delivery by measuring residual volume.
Preparation of brain tissue; Hippocampi were homogenized in 2 ml sucrose buffer (20 mM Tris pH 7.4, 10% sucrose, complete protease inhibitor cocktail mini-tablets [Roche cat#1-836-153]) for 25 seconds (Omni 115V Tissue Homogenizer TH-115). SDS (at 2%) was immediately added to the homogenate, and the samples were sonicated (Branson Sonifier 250; 10 pulses each). Extracts were total cellular extracts solubilized in SDS and include both cytoplasmic and membrane-bound GLT1.
Western blot analysis: Immunoblotting was performed using a LICOR Odyssey based system which uses IRDye 800 and Alexa Fluor 680 labeled secondary antibodies and signal is detected by diode lasers sensitive to infrared emissions of different wavelength. […]

aged impaired (AI) rats = type: in vivo; details: 50 mg/kg/day s.c. minipump
Method: Spatial memory version of the Morris water maze: Behavioral testing is conducted by an experimenter who is blind to drug treatment. Fourteen 25-27 month-old Long-Evans rats, previously characterized as cognitively impaired (AI rats), were tested in a modified version of the Morris water maze (MWM) task using the same MWM apparatus as described above. Unlike the traditional protocol wherein the platform location remained constant throughout training, the escape platform location in this spatial memory version of the task varied from day-to-day (in one of nine different positions).
AI rats were given six training trials per day with a 60-sec intertrial interval. On each training trial, the rat was released in the maze from one of four equally spaced starting positions around the perimeter of the pool. […] Following the six training trials, the rat is returned to its home cage and placed in the animal housing room. After a delay of four hours, the rat is given one additional testing trial (the “retention trial”) with the escape platform located in the same position as in the 6 training trials. The length of the rat's swim path to reach the escape platform is measured in all six training trials and the retention trial. Spatial memory in this task is measured by comparing the swim path lengths in the retention trial with the sixth (and final) training trial. […] A greater difference in performance in these two trials represents a greater degree of forgetting. After two days of acclimation to these procedures, this test protocol is given for nine consecutive days, with the position of the escape platform moved daily.
MNP enhances the cognitive performance of aged rats in the spatial memory version of the MWM: Following characterization for cognitive status with a traditional MWM protocol, impaired aged rats were assigned to one of two treatment conditions (vehicle controls or MNP). […] AI rats were pretreated with either vehicle or MNP for 9 days prior to behavioral testing. Osmotic minipumps (Alzet) were filled with either vehicle (0.9% saline) or MNP (50 mg/kg/day) and implanted subcutaneously. Initially, Alzet pumps that administer compound for one week were implanted; after seven days, these pumps (now empty) were removed and replaced with full two-week pumps allowing delivery of either MNP or saline for a total of 21 days. On Day 9 of treatment with either vehicle or MNP, MWM testing was begun. Data were collected in two replications with vehicle- and drug-treated rats represented in each. A total of 9 vehicle-treated and 5 MNP-treated rats completed the entire protocol. Several rats in both treatment groups, however, died during the execution of the study. […]

In the case of `C[C@@H]1CC=NN1C(=O)c1cccnc1` [MNP, (R)-(−)-5-methyl-1-nicotinoyl-2-pyrazoline], the “GLT1B immunoreactivity compared to vehicle controls” value (GLT1B) is reported as “no difference”, the “Difference in performance between final training trial and retention trial” value (aged impaired (AI) rats; 4-hour delay) is reported as “no significant difference in performance” and the “Performance in retention trials vs vehicle-treated controls” value (aged impaired (AI) rats; 4-hour delay, Days 9-11 of treatment) is reported as “performed significantly better”. For the same compound, the “Savings scores (memory for the platform location) vs vehicle-treated controls” value (aged impaired (AI) rats; Mann Whitney U test p<0.05) was “significantly better than vehicle-treated controls” and the “Performance on training trials 1-6 vs vehicle group” value (aged impaired (AI) rats; two-way analysis of variance) was “no significant difference between the groups”.
